For 5 molecules, EC50 and Emax results are on record in patent US12281149B2, “Modulators of G-protein coupled receptors” (priority 2021, dated 2025).

*1 amine or outer side, *2 acyl side, *3 side chain or, on linkers, in order; H or OH if unused. Where a SMILES comes first, the peptide text is derived from it. Side-chain parts run from the residue outwards. [ ]: non-standard residue; d: D form. The star is where a group is joined. Isobutyryl(2-(3-CN-5-F-Ph)) = CC(C)(C(=O)*)c1cc(F)cc(C#N)c1; C20 diacid = O=C(O)CCCCCCCCCCCCCCCCCCC(=O)*; X74 = CC(C)(C(=O)*)c1cc(F)cc(C(F)(F)F)c1; γGlu = O=C(O)[C@H](CCC(=O)[*:2])N[*:1]; X34 = CCC(CC)(C(=O)*)c1ccc(Cl)c(Cl)c1; X17 = CC(C)(C(=O)*)c1ccc(F)c(F)c1; X5 = O=C(C1(c2ccc(F)cc2F)CCCC1)*; AEEA = NCCOCCOCC(=O)O; Aib = CC(C)(N)C(=O)O; βAla = NCCC(=O)O A value given as a limit tells only on which side of the number the result lay.

What all share (assay type): cell-based
For test [1], the target named is T1, GLP-1 receptor (Homo sapiens, UniProt P43220). In words: HitHunter cAMP assay, GLP-1 receptor. The settings on record: for EC50: CHO cells stably expressing human GLP-1 receptor, cAMP accumulation, 30 min, read-out: EC50 GLP-1R; for Emax: CHO cells, cAMP, normalized to maximum signal from GLP-1 (high) and DMSO (low), read-out: Emax GLP-1R. (cAMP levels reflect the balance of adenylyl cyclase and phosphodiesterase activity.)
T1 sequence (P43220 24-463): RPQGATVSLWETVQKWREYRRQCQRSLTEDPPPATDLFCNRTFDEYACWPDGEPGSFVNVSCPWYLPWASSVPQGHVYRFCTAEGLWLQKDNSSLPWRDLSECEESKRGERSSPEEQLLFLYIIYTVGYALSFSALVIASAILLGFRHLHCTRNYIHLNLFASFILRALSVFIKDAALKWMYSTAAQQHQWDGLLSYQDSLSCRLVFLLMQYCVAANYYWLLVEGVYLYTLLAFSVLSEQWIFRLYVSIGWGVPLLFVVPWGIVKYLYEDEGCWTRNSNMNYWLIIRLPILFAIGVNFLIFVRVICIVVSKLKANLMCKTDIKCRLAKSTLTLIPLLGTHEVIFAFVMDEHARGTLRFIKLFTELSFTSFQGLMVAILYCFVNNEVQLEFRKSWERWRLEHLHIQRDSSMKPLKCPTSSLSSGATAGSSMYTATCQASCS

In test [2] the target is T2, GIP receptor (Homo sapiens, UniProt P48546).
T2 sequence (P48546 22-466): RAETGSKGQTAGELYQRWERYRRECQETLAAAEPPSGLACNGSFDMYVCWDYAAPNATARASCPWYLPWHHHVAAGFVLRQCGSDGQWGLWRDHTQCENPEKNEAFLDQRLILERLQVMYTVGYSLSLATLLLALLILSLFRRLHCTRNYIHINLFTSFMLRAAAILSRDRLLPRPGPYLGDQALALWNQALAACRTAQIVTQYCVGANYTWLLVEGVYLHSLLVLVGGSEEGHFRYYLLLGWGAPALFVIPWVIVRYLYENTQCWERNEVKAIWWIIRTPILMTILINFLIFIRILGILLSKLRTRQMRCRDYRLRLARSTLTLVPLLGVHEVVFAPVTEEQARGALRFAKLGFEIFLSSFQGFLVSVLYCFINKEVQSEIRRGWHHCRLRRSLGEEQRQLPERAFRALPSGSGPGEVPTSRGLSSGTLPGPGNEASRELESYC
The experiment in a line: HitHunter cAMP assay, GIP receptor. The settings on record: for EC50: CHO cells stably expressing GIP receptor, cAMP accumulation, 30 min, read-out: EC50 GIP-1R; for Emax: CHO cells, cAMP, normalized to maximum signal from GIP (high) and DMSO (low), read-out: Emax GIP-1R.

Test [3] addresses T2, GIP receptor. In words: PathHunter β-arrestin assay, GIP receptor. Particulars: β-arrestin-2 recruitment, PathHunter CHO-K1 GIPR β-Arrestin Cell Line, 90 min at 37° C.; normalized to GIP; read-out: GIPR β Arrestin EC50. The arrangement: host or cells: PathHunter CHO-K1 GIPR β-Arrestin Cell Line. On the technique in general: Recruitment of arrestin is a read-out of receptor activation apart from second messengers.

Test [4] addresses T1, GLP-1 receptor. The experiment in a line: PathHunter β-arrestin assay, GLP-1 receptor. More on the design: host or cells: PathHunter CHO-K1 GLP1R β-Arrestin Cell Line. Particulars: β-arrestin-2 recruitment, PathHunter CHO-K1 GLP1R β-Arrestin Cell Line, 90 min at 37° C.; normalized to GLP-1; read-out: GLP-1R β Arrestin EC50.

In the case of `CC[C@H](C)[C@H](NC(=O)[C@H](CO)NC(=O)[C@H](Cc1ccc(O)cc1)NC(=O)[C@H](CC(=O)O)NC(=O)[C@H](CO)NC(=O)[C@@H](NC(=O)[C@H](Cc1ccccc1)NC(=O)[C@@H](NC(=O)CNC(=O)[C@H](CCC(=O)O)NC(=O)CCNC(=O)C(C)(C)c1cc(F)cc(C#N)c1)[C@@H](C)O)[C@@H](C)O)C(=O)N[C@@H](Cc1ccc(O)cc1)C(=O)N[C@@H](CC(C)C)C(=O)N[C@@H](CC(=O)O)C(=O)N[C@@H](CCCCN)C(=O)N[C@@H](CCC(N)=O)C(=O)N[C@@H](C)C(=O)N[C@@H](C)C(=O)NC(C)(C)C(=O)N[C@@H](CCC(=O)O)C(=O)N[C@@H](Cc1ccccc1)C(=O)N[C@H](C(=O)N[C@@H](CCCCNC(=O)COCCOCCNC(=O)COCCOCCNC(=O)CC[C@H](NC(=O)CCCCCCCCCCCCCCCCCCC(=O)O)C(=O)O)C(=O)N[C@@H](Cc1c[nH]c2ccccc12)C(=O)N[C@@H](CC(C)C)C(=O)N[C@@H](CC(C)C)C(=O)N[C@@H](C)C(=O)NCC(=O)NCC(=O)N1CCC[C@H]1C(=O)N[C@@H](CO)C(=O)N[C@@H](CO)C(=O)NCC(=O)N[C@@H](C)C(=O)N1CCC[C@H]1C(=O)N1CCC[C@H]1C(=O)N1CCC[C@H]1C(=O)N[C@@H](CO)C(N)=O)C(C)C` [Compound 103] ({Isobutyryl(2-(3-CN-5-F-Ph))-βAla}-EGTFTSDYSIYLDKQAA[Aib]EFVK([AEEA-AEEA-γGlu-C20 diacid])WLLAGGPSSGAPPPS-NH2), the EC50 (commonly the concentration at which the effect is half-maximal) on GLP-1 receptor [1] was 0.1 to 1 nM; at GIP receptor [2], 10 to 100 nM; on GIP receptor [3], more than 1000 nM; on GLP-1 receptor [4] it was more than 1000 nM. Further, the results for the Emax at GLP-1 receptor [1] and at GIP receptor [2] were 89% and 96%, respectively.

Turning to `CC[C@H](C)[C@H](NC(=O)[C@H](CC(C)C)NC(=O)[C@H](Cc1c[nH]c2ccccc12)NC(=O)[C@H](CCC(N)=O)NC(=O)[C@@H](NC(=O)[C@H](Cc1ccccc1)NC(=O)[C@H](C)NC(=O)[C@H](CCCCNC(=O)COCCOCCNC(=O)COCCOCCNC(=O)CC[C@H](NC(=O)CCCCCCCCCCCCCCCCCCC(=O)O)C(=O)O)NC(=O)[C@H](CCC(N)=O)NC(=O)[C@H](C)NC(=O)[C@@H](NC(=O)[C@H](CCCCN)NC(=O)[C@H](CC(=O)O)NC(=O)[C@H](CC(C)C)NC(=O)C(C)(C)NC(=O)[C@@H](NC(=O)[C@H](CO)NC(=O)[C@H](Cc1ccc(O)cc1)NC(=O)[C@H](CC(=O)O)NC(=O)[C@H](CO)NC(=O)[C@@H](NC(=O)[C@H](Cc1ccccc1)NC(=O)[C@@H](NC(=O)CNC(=O)[C@H](CCC(=O)O)NC(=O)CCNC(=O)C1(c2ccc(F)cc2F)CCCC1)[C@@H](C)O)[C@@H](C)O)[C@@H](C)CC)[C@@H](C)CC)C(C)C)C(=O)N[C@@H](C)C(=O)NCC(=O)NCC(=O)N1CCC[C@H]1C(=O)N[C@@H](CO)C(=O)N[C@@H](CO)C(=O)NCC(=O)N[C@@H](C)C(=O)N1CCC[C@H]1C(=O)N1CCC[C@H]1C(=O)N1CCC[C@H]1C(=O)N[C@@H](CO)C(N)=O` [Compound 220] ({X5-βAla}-EGTFTSDYSI[Aib]LDKIAQK([AEEA-AEEA-γGlu-C20 diacid])AFVQWLIAGGPSSGAPPPS-NH2), the EC50 is 0.1 to 1 nM at GLP-1 receptor [1], 0.1 to 1 nM on GIP receptor [2], less than 1000 nM on GIP receptor [3] and more than 1000 nM at GLP-1 receptor [4]. The Emax – broadly, the maximal effect, on the per cent scale that the assay sets – on GLP-1 receptor [1] was determined as 102%; on GIP receptor [2], 108%.

On to `CC[C@H](C)[C@H](NC(=O)[C@H](CC(C)C)NC(=O)[C@H](Cc1c[nH]c2ccccc12)NC(=O)[C@H](CCC(N)=O)NC(=O)[C@@H](NC(=O)[C@H](Cc1ccccc1)NC(=O)[C@H](C)NC(=O)[C@H](CCCCNC(=O)COCCOCCNC(=O)COCCOCCNC(=O)CC[C@H](NC(=O)CCCCCCCCCCCCCCCCCCC(=O)O)C(=O)O)NC(=O)[C@H](CCC(N)=O)NC(=O)[C@H](C)NC(=O)[C@@H](NC(=O)[C@H](CCCCN)NC(=O)[C@H](CC(=O)O)NC(=O)[C@H](CC(C)C)NC(=O)C(C)(C)NC(=O)[C@@H](NC(=O)[C@H](CO)NC(=O)[C@H](Cc1ccc(O)cc1)NC(=O)[C@H](CC(=O)O)NC(=O)[C@H](CO)NC(=O)[C@@H](NC(=O)[C@H](Cc1ccccc1)NC(=O)[C@@H](NC(=O)CNC(=O)[C@H](CCC(=O)O)NC(=O)CCNC(=O)C(CC)(CC)c1ccc(Cl)c(Cl)c1)[C@@H](C)O)[C@@H](C)O)[C@@H](C)CC)[C@@H](C)CC)C(C)C)C(=O)N[C@@H](C)C(=O)NCC(=O)NCC(=O)N1CCC[C@H]1C(=O)N[C@@H](CO)C(=O)N[C@@H](CO)C(=O)NCC(=O)N[C@@H](C)C(=O)N1CCC[C@H]1C(=O)N1CCC[C@H]1C(=O)N1CCC[C@H]1C(=O)N[C@@H](CO)C(N)=O` [Compound 175] ({X34-βAla}-EGTFTSDYSI[Aib]LDKIAQK([AEEA-AEEA-γGlu-C20 diacid])AFVQWLIAGGPSSGAPPPS-NH2), for which the EC50 on GLP-1 receptor [1] is 1 to 10 nM; on GIP receptor [2], 1 to 10 nM; at GIP receptor [3], less than 1000 nM; at GLP-1 receptor [4] it was more than 1000 nM. In addition, the Emax amounted to 94% at GLP-1 receptor [1] and 110% on GIP receptor [2].

As for `CC[C@H](C)[C@H](NC(=O)[C@H](CC(C)C)NC(=O)[C@H](Cc1c[nH]c2ccccc12)NC(=O)[C@H](CCC(N)=O)NC(=O)[C@@H](NC(=O)[C@H](Cc1ccccc1)NC(=O)[C@H](C)NC(=O)[C@H](CCCCNC(=O)COCCOCCNC(=O)COCCOCCNC(=O)CC[C@H](NC(=O)CCCCCCCCCCCCCCCCCCC(=O)O)C(=O)O)NC(=O)[C@H](CCC(N)=O)NC(=O)[C@H](C)NC(=O)[C@@H](NC(=O)[C@H](CCCCN)NC(=O)[C@H](CC(=O)O)NC(=O)[C@H](CC(C)C)NC(=O)C(C)(C)NC(=O)[C@@H](NC(=O)[C@H](CO)NC(=O)[C@H](Cc1ccc(O)cc1)NC(=O)[C@H](CC(=O)O)NC(=O)[C@H](CO)NC(=O)[C@@H](NC(=O)[C@H](Cc1ccccc1)NC(=O)[C@@H](NC(=O)CNC(=O)[C@H](CCC(=O)O)NC(=O)CCNC(=O)C(C)(C)c1ccc(F)c(F)c1)[C@@H](C)O)[C@@H](C)O)[C@@H](C)CC)[C@@H](C)CC)C(C)C)C(=O)N[C@@H](C)C(=O)NCC(=O)NCC(=O)N1CCC[C@H]1C(=O)N[C@@H](CO)C(=O)N[C@@H](CO)C(=O)NCC(=O)N[C@@H](C)C(=O)N1CCC[C@H]1C(=O)N1CCC[C@H]1C(=O)N1CCC[C@H]1C(=O)N[C@@H](CO)C(N)=O` [Compound 215] ({X17-βAla}-EGTFTSDYSI[Aib]LDKIAQK([AEEA-AEEA-γGlu-C20 diacid])AFVQWLIAGGPSSGAPPPS-NH2), the concentration giving a half-maximal response (EC50) on GLP-1 receptor [1] was 0.1 to 1 nM; at GIP receptor [2], 0.1 to 1 nM; on GIP receptor [3], less than 1000 nM; on GLP-1 receptor [4], more than 1000 nM. The results for the Emax at GLP-1 receptor [1] and on GIP receptor [2] were 98% and 99%, respectively.

On to `CC[C@H](C)[C@H](NC(=O)[C@H](CC(C)C)NC(=O)[C@H](Cc1c[nH]c2ccccc12)NC(=O)[C@H](CCC(N)=O)NC(=O)[C@@H](NC(=O)[C@H](Cc1ccccc1)NC(=O)[C@H](C)NC(=O)[C@H](CCCCNC(=O)COCCOCCNC(=O)COCCOCCNC(=O)CC[C@H](NC(=O)CCCCCCCCCCCCCCCCCCC(=O)O)C(=O)O)NC(=O)[C@H](CCC(N)=O)NC(=O)[C@H](C)NC(=O)[C@@H](NC(=O)[C@H](CCCCN)NC(=O)[C@H](CC(=O)O)NC(=O)[C@H](CC(C)C)NC(=O)C(C)(C)NC(=O)[C@@H](NC(=O)[C@H](CO)NC(=O)[C@H](Cc1ccc(O)cc1)NC(=O)[C@H](CC(=O)O)NC(=O)[C@H](CO)NC(=O)[C@@H](NC(=O)[C@H](Cc1ccccc1)NC(=O)[C@@H](NC(=O)CNC(=O)[C@H](CCC(=O)O)NC(=O)CCNC(=O)C(C)(C)c1cc(F)cc(C(F)(F)F)c1)[C@@H](C)O)[C@@H](C)O)[C@@H](C)CC)[C@@H](C)CC)C(C)C)C(=O)N[C@@H](C)C(=O)NCC(=O)NCC(=O)N1CCC[C@H]1C(=O)N[C@@H](CO)C(=O)N[C@@H](CO)C(=O)NCC(=O)N[C@@H](C)C(=O)N1CCC[C@H]1C(=O)N1CCC[C@H]1C(=O)N1CCC[C@H]1C(=O)N[C@@H](CO)C(N)=O` [Compound 119] ({X74-βAla}-EGTFTSDYSI[Aib]LDKIAQK([AEEA-AEEA-γGlu-C20 diacid])AFVQWLIAGGPSSGAPPPS-NH2), for which the EC50 on GLP-1 receptor [1] was 1 to 10 nM; at GIP receptor [2] it was 10 to 100 nM; on GIP receptor [3], more than 1000 nM; at GLP-1 receptor [4] it was more than 1000 nM. The results for the maximum response (Emax) on GLP-1 receptor [1] and on GIP receptor [2] were 102% and 99%, respectively.
